Source: paper PMC11303286, “In silico and in vitro chemometrics, cell toxicity and permeability of naringenin 8-sulphonate and derivatives” (Frontiers in Pharmacology, 2024)

Experiments:
[1] = tested on: Caco-2 cells; conditions: ref Tian et al., 2009; cited from earlier work
[2] = tested on: HaCaT human keratinocyte cells; assay: MTT cell viability assay, HaCaT; type: cell-based; conditions: 24 h, compared to control
Procedure: (§1) MRC-5 human lung fibroblast cells (Sigma-Aldrich, St. Louis, MO, United States) were cultured in MEM, while HaCaT human keratinocyte cells (ATCC, Manassas, VA, United States) and Caco-2 human intestinal epithelial cells (American Type Culture Collection, LGC Standards S.L.U., Spain) were cultured in DMEM. Both medium were supplemented with 10% of FBS and 1% of penicillin/streptomycin. Cells were incubated in 75 cm^2 cell culture flasks, which were placed in an incubator at 37°C, with a humidified atmosphere of 5% CO2. For the experiments, cells were seeded for 24 h in 96-well plates. MRC-5 and Caco-2 were seeded at 20,000 cells/well and HaCaT were seeded at 15,000 cells/well.
(§2) Toxicity of compounds, at 50 and 100 μM, was assessed against non-cancerous cell lines through the MTT assay after 24 h of incubation, following the protocol described in [Macedo et al., (2023)], with slight modifications. Thus, cells were exposed to MTT for 2 h, in the case of MRC-5, and 1 h 30 min, in the case of HaCaT. This assay was also performed to evaluate the response of Caco-2 cells to compounds at concentrations from 125 to 1,000 μM during the permeability assay, these cells being incubated for 4 h with the samples and exposed to MTT for 2 h. Results were expressed as percentage of viability compared to the control and correspond to the mean of, at least, three independent experiments performed in triplicate.

[3] = tested on: MRC-5 human lung fibroblast cells; assay: MTT cell viability assay, MRC-5; type: cell-based; conditions: 24 h; for cell viability: compared to control
Procedure: as §1, §2

[4] = tested on: Caco-2 human intestinal epithelial cells; assay: MTT cell viability assay, Caco-2 (before permeability assay); type: cell-based; conditions: Caco-2, 4 h, concentrations until 1,000 μM
Procedure: as §1, §2
The ability of naringenin 8-sulphonate to cross biological barriers was tested using a Caco-2 permeability model. The first step for this assay was to test the possible impact of high concentrations of samples in Caco-2 cells during the time of the experiment. Thus, an MTT assay, using concentrations of naringenin, naringenin 4’-O-sulphate and naringenin 8-sulphonate until 1,000 μM, was performed.

[5] = tested on: Caco-2 cell monolayers; assay: Caco-2 permeability assay (Transwell); type: in vitro ADME, human; conditions: for P app, experimental: Caco-2 permeability model, 1,000 μM, 240 min time point; for percentage of the amount placed in the apical chamber found in the basolateral chamber: after 240 min, 1,000 μM, apical to basolateral; for P app class, experimental: classification ref Karakucuk et al., 2021
Procedure: (§3) Caco-2 cells were seeded for 21 days at 112,000 cells/well in Corning® 3460 Transwell® 12 mm Polyester Membrane Inserts (Corning Incorporated, ME, United States). At every other day, culture medium was replaced and the transepithelial electrical resistance was measured to ensure values above 400 ohms until the day of the assay, to guarantee membrane integrity. For quality control purposes, Lucifer Yellow was used at 100 μg mL^-1 in the day of the assay. Briefly, one of the inserts was incubated with Lucifer Yellow during 1 h and, after that, its concentration was measured in the basolateral chamber, based on fluorescence intensity (λexc = 485 nm and λem = 535 nm). Lucifer Yellow passage, from the apical to the basolateral chamber equal or lower than 3% was considered indicative of a well-defined cell barrier phenotypically translated as good membrane integrity.
(§4) Treatments were applied in the transwells apical chamber and the basolateral chamber was filled with HBSS with calcium (1.26 mM) and magnesium (0.81 mM). At specific timepoints, namely 10, 20, 30, 60, 90, 120 and 180 min, half of the volume from the basolateral chamber was collected and replaced by the same volume of HBSS. In the last time point, at 240 min, content of both apical and basolateral compartments was collected to calculate the final mass balance. Transwells were maintained in agitation at 50 rpm, 37°C and 5% CO2 between the timepoints.
(§5) Concentration of each analyte in the different compartments was determined by HPLC-DAD using a Gilson Medical Electronics HPLC system (Villiers le Bel, France), with a Spherisorb ODS® (250 × 4.6 mm, 5 μm particle size, 100 Å pore size) column (PSS831915, Waters, Dublin, Ireland). Elution was performed for 7 min, with a flow rate of 900 μL min^-1. A mixture of methanol: water-formic acid (1%) was used as mobile phase, in a proportion of 65:35 for naringenin and 47:53 for naringenin 4’-O-sulphate and naringenin 8-sulphonate. Quantifications were performed at 285 nm.
(§6) Results were obtained from three independent experiments and each sample was analysed in triplicate. Apparent permeability (P app ) coefficient (cm s^-1) was calculated based on the equation P app = ΔQ/Δt×(1/(A×C0)), where ΔQ/Δt represents the amount of compound over time (mol s^-1), A is the monolayer area (cm^2) and C0 (mol mL^-1) is the initial drug concentration of the apical side ([Nait et al., 2009]; [Silva et al., 2020]).

[6] = tested on: Caco-2 human intestinal epithelial cells; assay: Alkaline comet assay (DNA damage), Caco-2; conditions: for percentage of DNA in tail, first quartile / percentage of DNA in tail, third quartile / percentage of DNA in tail, median: Caco-2, 100 μM, 24 h; for percentage of DNA in tail, median: negative control 20.98; for genotoxicity: DNA fragmentation: Caco-2, alkaline comet assay, 100 μM
Procedure: Caco-2 cells were incubated for 24 h in 12 well plates at a density of 350,000 cells/well. After this, they were incubated with each sample and negative control for 24 h and collected using 500 μL of trypsin (0.25%)-ethylenediaminetetraacetic acid (EDTA) (0.038%), which was then inactivated with 1 mL of Hanks’ Balanced Salt Solution (HBSS). The cell suspension was centrifuged at 1,200 rpm during 8 min at room temperature, supernatant was discarded, and cells were resuspended in 100 μL of HBSS.
Electrophoresis was carried out to evaluate the extent of DNA fragmentation. For this, agarose-coated slides were prepared using an 1% agarose solution. A volume of 20 μL from the cell suspension was involved in 170 μL of 1% low gelling temperature agarose solution and applied to the slides, which were then placed at 4°C until solidification. Slides were submerged in a lysis solution (2.5 M NaCl, 0.1 M EDTA, 10 mM Tris-HCl, pH 10) with 1% Triton-X 100, at 4°C and sheltered from the light, for 105 min. After this, slides were submerged in the electrophoresis buffer (300 mM NaOH, 1 mM EDTA, pH 13) for 40 min. A Sub-Cell GT Horizontal Electrophoresis System 15 × 15 cm tray (Bio-Rad Laboratories Lda, Oeiras, Portugal) was used to run the electrophoresis at 25 V and 240 mA during 30 min in the dark. In the end of the electrophoresis, slides were submerged for three times in a neutralization solution (0.4 M Tris-HCl, pH 7.5), during 5 min each.
For the fluorescence microscopy analysis, DAPI was added for 15 min at 0.5 μg mL^-1, the slides being washed once with HBSS in the end. Images were acquired using a Nikon Eclipse Ts2R-FL inverted microscope with a Retiga R1 camera (01-RET-R1-RM) and CFI Plan Fluor ×10 DIC objective. DNA damage was calculated using the AutoComet algorithm ([Barbe et al., 2023]) by dividing the amount of fluorescence signal correspondent to the DNA content in the comet’s tail by the signal correspondent to the total DNA in the comet. MMS 500 μM, incubated for 30 min, was used as positive control for DNA fragmentation and consequent DNA tail formation.
Comet assay was performed to evaluate possible genotoxicity of compounds. […] The percentage of DNA in the tail may be used as a parameter to evaluate the damage on DNA ([Clementi et al., 2021]).

[7] = MTT cell viability assay, HaCaT; type: cell-based, human; conditions: human, HaCaT keratinocyte cells, compared to control
Procedure: as §1, §2

[8] = Caco-2 permeability assay (Transwell); type: in vitro ADME, human; conditions: human; Caco-2 permeability model, 1,000 μM, 240 min time point; read-out: P app, experimental
Procedure: as §3, §4, §5, §6

[9] = tested on: HT29 cells; parameters: method as in Baranowska et al., 2021; conditions: concentrations up to 100 μM; ref Baranowska et al., 2021; cited from earlier work
[10] = tested on: MCF-7; parameters: method as in Kocyigit et al., 2016; conditions: ref Kocyigit et al., 2016; cited from earlier work
[11] = tested on: HT-29; parameters: method as in Kocyigit et al., 2016; conditions: ref Kocyigit et al., 2016; cited from earlier work
[12] = tested on: PC-12; parameters: method as in Kocyigit et al., 2016; conditions: ref Kocyigit et al., 2016; cited from earlier work
[13] = tested on: L-929; parameters: method as in Kocyigit et al., 2016; conditions: ref Kocyigit et al., 2016; cited from earlier work
[14] = tested on: human umbilical vein endothelial cells (HUVECs); parameters: method as in earlier work; conditions: ref Çeker et al., 2019; cited from earlier work
[15] = MTT cell viability assay, MRC-5; type: cell-based, human; conditions: human, MRC-5 lung fibroblast cells, MRC-5, 100 μM, compared to control
Procedure: as §1, §2

SMILES	reported P app [1]	changes on cell viability [4]	P app, experimental [5]	percentage of the amount placed in the apical chamber found in the basolateral chamber [5]	P app class, experimental [5]	percentage of DNA in tail, first quartile [6]	percentage of DNA in tail, third quartile [6]	percentage of DNA in tail, median [6]	genotoxicity: DNA fragmentation [6]	viability at 24 h, 50 µM [7]	viability at 24 h, 100 µM [7]	Papp A→B at 240 min, 1000 μM [8]	also measured
O=c1c(O)c(-c2ccc(O)cc2O)oc2cc(O)cc(O)c12 [morin]	6.2e-07 cm/s	–	–	–	–	–	–	–	–	–	–	–	–
O=c1c(O)c(-c2cc(O)c(O)c(O)c2)oc2cc(O)cc(O)c12 [myricetin]	1.7e-06 cm/s	–	–	–	–	–	–	–	–	–	–	–	–
O=C1C[C@@H](c2ccc(O)cc2)Oc2c1c(O)cc(O)c2S(=O)(=O)O [naringenin 8-sulphonate]	–	no significant changes on cell viability	2.68e-06 cm/s	10.41%	→ (moderate P app)	7.25%	66.61%	31.18%	caused significant DNA fragmentation	–	–	–	cell viability ([2]; 50 μM): 92.99%; cell viability ([2]; 100 μM): 91.95%; cell viability ([3]; MRC-5, 50 μM): 94.77%; cell viability ([3]; MRC-5, 100 μM): 94.71%
O=C1C[C@@H](c2ccc(O)cc2)Oc2cc(O)cc(O)c21 [naringenin]	–	no significant changes on cell viability	8.29e-06 cm/s	32.01%	→ (moderate P app)	14.24%	63.36%	33.07%	caused significant DNA fragmentation	93.2%	91.9%	8.29 ×10⁻⁶ cm/s	effect on cell viability ([3]; MRC-5, 50 and 100 μM): did not elicit any significant decrease; impact on DNA integrity [9]: no impact on DNA integrity; DNA damage [10]: able to cause DNA damage; DNA damage [11]: able to cause DNA damage; DNA damage [12]: able to cause DNA damage; DNA damage [13]: able to cause DNA damage; concentration causing the best antigenotoxic effects [14]: 8 µM; concentrations causing DNA damage [14]: ≥ 50 µM
O=C1C[C@@H](c2ccc(OS(=O)(=O)O)cc2)Oc2cc(O)cc(O)c21 [naringenin 4’-O-sulphate]	–	no significant changes on cell viability	3.45e-06 cm/s	12.73%	→ (moderate P app)	4.33%	33.90%	15.89%	did not	95.4%	89.2%	3.45 ×10⁻⁶ cm/s	viability at 24 h, 100 µM [15]: 81.5%
